From patent publication US20230331815A1 (priority 2020, published 2023)

Experiments:
SARS-CoV-2 = settings: cited from earlier work
HSPG receptor = assay: hLF cell membrane localization, confocal microscopy of VeroE6/T cells; format: cell-based, African green monkey; settings: co-incubation of hLF and heparin
Description: To visualize cell membrane localization of human lactoferrin (hLF), VeroE6/T cells (0.75×10^5 cells/well) were chilled at 4° C. for 1 hr, incubated with 2.5 µM of hLF. Cells were washed, fixed using 4% PFA (Invitrogen), stained with anti-hLF antibody, and fluorescent image was taken under confocal microscope (FIG. 10, middle row). Cell nuclei were visualized using DAPI (FIG. 10, bottom row). To visualize the cell surface and nuclei at the same time, the confocal images above (i.e., FIG. 10, middle and bottom rows) were merged and are presented in FIG. 10, top row. […] To see the effect of heparin on the binding of hLF to the cell surface (specifically the HSPG receptor), cells were co-incubated with hLF and heparin (H), and the confocal image was taken (FIG. 10, right column).

Substance	IC50 (SARS-CoV-2)	effect on binding of hLF to the cell surface HSPG receptor (HSPG receptor)
Ivermectin	2.2 to 2.8 µM	–
heparin [reference compound]	–	inhibited
